Laboratory results: the CheMixHub viscosity set
“And” between values parts separate entries of the source, which are not always exact repeats. Identical values can stand only once.

Assay: xn = mol fraction of the nth substance listed

CCC(C)=O + c1ccccc1
Conditions	viscosity [mPa·s]
293.15 K, 101 kPa, x1 = 0.2	0.569
293.15 K, 101 kPa, x1 = 0.4	0.511
293.15 K, 101 kPa, x1 = 0.5	0.487
293.15 K, 101 kPa, x1 = 0.6	0.471
293.15 K, 101 kPa, x1 = 0.8	0.435
298 K, 101.33 kPa, x2 = 0.1513	0.3919
298 K, 101.33 kPa, x2 = 0.2663	0.4141
298 K, 101.33 kPa, x2 = 0.2941	0.4175
298 K, 101.33 kPa, x2 = 0.4321	0.4408
298 K, 101.33 kPa, x2 = 0.5597	0.4674
298 K, 101.33 kPa, x2 = 0.6057	0.4775
298 K, 101.33 kPa, x2 = 0.7302	0.5097
298 K, 101.33 kPa, x2 = 0.8777	0.5571
298.15 K, 101 kPa, x2 = 0.106	0.4072
298.15 K, 101 kPa, x2 = 0.197	0.4173
298.15 K, 101 kPa, x2 = 0.3	0.4324
298.15 K, 101 kPa, x2 = 0.4	0.4487
298.15 K, 101 kPa, x2 = 0.5	0.4672
298.15 K, 101 kPa, x2 = 0.615	0.4908
298.15 K, 101 kPa, x2 = 0.694	0.508
298.15 K, 101 kPa, x2 = 0.793	0.5355
298.15 K, 101 kPa, x2 = 0.895	0.5683
299.15 K, 101.3 kPa, x2 = 0.098	0.41
299.15 K, 101.3 kPa, x2 = 0.198	0.425
299.15 K, 101.3 kPa, x2 = 0.298	0.443
299.15 K, 101.3 kPa, x2 = 0.398	0.455
299.15 K, 101.3 kPa, x2 = 0.498	0.474
299.15 K, 101.3 kPa, x2 = 0.599	0.497
299.15 K, 101.3 kPa, x2 = 0.699	0.519
299.15 K, 101.3 kPa, x2 = 0.799	0.546
299.15 K, 101.3 kPa, x2 = 0.899	0.584
303.15 K, 101 kPa, x1 = 0.1023	0.538
303.15 K, 101 kPa, x1 = 0.2	0.498
303.15 K, 101 kPa, x1 = 0.2042	0.509
303.15 K, 101 kPa, x1 = 0.395	0.467
303.15 K, 101 kPa, x1 = 0.4	0.454
303.15 K, 101 kPa, x1 = 0.5	0.434
303.15 K, 101 kPa, x1 = 0.5129	0.444
303.15 K, 101 kPa, x1 = 0.6	0.42
303.15 K, 101 kPa, x1 = 0.6822	0.42
303.15 K, 101 kPa, x1 = 0.8	0.391
303.15 K, 101 kPa, x1 = 0.853	0.396
307.35 K, 101.33 kPa, x1 = 0.0925	0.501
307.35 K, 101.33 kPa, x1 = 0.2405	0.462
307.35 K, 101.33 kPa, x1 = 0.3178	0.446
307.35 K, 101.33 kPa, x1 = 0.4477	0.424
307.35 K, 101.33 kPa, x1 = 0.5084	0.41
307.35 K, 101.33 kPa, x1 = 0.616	0.394
307.35 K, 101.33 kPa, x1 = 0.7356	0.378
308.15 K, 101 kPa, x1 = 0.2	0.471
308.15 K, 101 kPa, x1 = 0.4	0.431
308.15 K, 101 kPa, x1 = 0.5	0.414
308.15 K, 101 kPa, x1 = 0.6	0.401
308.15 K, 101 kPa, x1 = 0.8	0.373
318.15 K, 101 kPa, x1 = 0.2	0.421
318.15 K, 101 kPa, x1 = 0.4	0.388
318.15 K, 101 kPa, x1 = 0.5	0.373
318.15 K, 101 kPa, x1 = 0.6	0.362
318.15 K, 101 kPa, x1 = 0.8	0.339

CC(CC(C)(C)C)CP(=O)([O-])CC(C)CC(C)(C)C.CCCC[P+](C)(CCCC)CCCC (stereo not drawn) + CCCCCCCCCCCC
viscosity [mPa·s], 101 kPa
Conditions	298.15 K	303.15 K	308.15 K	313.15 K	318.15 K	323.15 K
x2 = 0.25	318	214	159	112	81.6	60.6
x2 = 0.43	88.6	67.8	53.6	41.9	34.4	27.1
x2 = 0.56	39.4	31	25.4	21.7	18.3	16.1

OCCNCCO + O=S1(=O)CCCC1
viscosity [mPa·s], 101 kPa
Conditions	x2 = 0.0999	x2 = 0.2999	x2 = 0.4687	x2 = 0.6712	x2 = 0.8322
303.15 K	262.7	125.4	63.49	14.99	12.62
323.15 K	73.14	32.73	15.33	9.455	7.362

O=C([O-])[O-].[Na+].[Na+] + [2H]O[2H]
viscosity [mPa·s], 101 kPa
Conditions	x1 = 0.009	x1 = 0.018	x1 = 0.031	x1 = 0.041
298.15 K	1.4	1.847	2.881	4.233
308.15 K	1.094	1.443	2.174	3.115
318.15 K	0.895	1.167	1.725	2.435

O=S(=O)([O-])c1ccc(O)cc1.[Na+] + O
viscosity [mPa·s], 101 kPa
Conditions	x1 = 9e-05	x1 = 0.00018	x1 = 0.0009	x1 = 0.0018	x1 = 0.00448	x1 = 0.00893	x1 = 0.0133	x1 = 0.0177
298.15 K	0.899	0.9	0.915	0.931	0.988	1.085	1.196	1.321
318.15 K	0.598	0.599	0.608	0.62	0.656	0.715	0.786	0.86

COc1ccccc1N + NCCO
viscosity [mPa·s], 100 kPa
Conditions	x1 = 0.0897	x1 = 0.1649	x1 = 0.2579	x1 = 0.3519	x1 = 0.4497	x1 = 0.5507	x1 = 0.6549	x1 = 0.7626	x1 = 0.8735
303.15 K	13.58	12.87	11.99	11.1	10.18	9.22	8.23	7.2	6.14
308.15 K	11.07	10.54	9.87	9.2	8.5	7.77	7.02	6.24	5.44
313.15 K	9.09	8.7	8.2	7.7	7.17	6.63	6.07	5.49	4.88
318.15 K	7.24	6.97	6.64	6.29	5.94	5.56	5.18	4.78	4.37

O=C(O)c1ccccc1 + CCCO
viscosity
Conditions	298.15 K	303.15 K	308.15 K	313.15 K	318.15 K
101 kPa, x1 = 0.164	–	2.531 mPa·s	–	–	1.77 mPa·s
101 kPa, x1 = 0.1645	2.892 mPa·s	2.531 mPa·s	2.243 mPa·s	1.988 mPa·s	1.77 mPa·s
101 kPa, x1 = 0.178	–	2.603 mPa·s	–	–	1.816 mPa·s
101 kPa, x1 = 0.197	–	2.724 mPa·s	–	–	1.881 mPa·s
101 kPa, x1 = 0.216	–	2.844 mPa·s and 2.844 mPa·s	2.498 mPa·s	2.206 mPa·s	1.965 mPa·s and 1.965 mPa·s
101.33 kPa, x1 = 0.1645	–	2.531 mPa·s	–	–	1.77 mPa·s
101.33 kPa, x1 = 0.178	–	2.603 mPa·s	–	–	1.816 mPa·s
101.33 kPa, x1 = 0.1975	–	2.734 mPa·s	–	–	1.881 mPa·s
101.33 kPa, x1 = 0.2	2.892 mPa·s	2.531 mPa·s and 2.531 mPa·s	2.243 mPa·s and 2.243 mPa·s	1.988 mPa·s and 1.988 mPa·s	1.77 mPa·s and 1.77 mPa·s
101.33 kPa, x1 = 0.216	–	2.844 mPa·s	–	–	1.965 mPa·s
101.33 kPa, x1 = 0.22	–	2.844 mPa·s and 2.844 mPa·s	2.498 mPa·s and 2.498 mPa·s	2.206 mPa·s and 2.206 mPa·s	1.965 mPa·s and 1.965 mPa·s

COC(C)=O + CCO
298.15 K, 101.33 kPa
Conditions	viscosity [mPa·s]
x1 = 0.1146	0.833
x1 = 0.2045	0.695
x1 = 0.3207	0.574
x1 = 0.4245	0.506
x1 = 0.5004	0.467
x1 = 0.6077	0.438
x1 = 0.7989	0.399
x1 = 0.8802	0.39

COc1ccccc1N + CCOCCO
303.15 K, 101 kPa
Conditions	viscosity [mPa·s]
x1 = 0.0875	2.2
x1 = 0.1775	2.547
x1 = 0.2701	2.908
x1 = 0.3653	3.268
x1 = 0.4633	3.603
x1 = 0.5643	3.917
x1 = 0.6683	4.18
x1 = 0.7755	4.436
x1 = 0.886	4.681

CCC(C)=O + CCCCCCCO
viscosity [mPa·s], 100 kPa
Conditions	x1 = 0.0829	x1 = 0.1614	x1 = 0.2389	x1 = 0.3509	x1 = 0.4404	x1 = 0.5592	x1 = 0.6488	x1 = 0.7389	x1 = 0.8502	x1 = 0.9396
293.15 K	5.23	3.85	3.02	2.1	1.64	1.16	0.92	0.73	0.56	0.47
303.15 K	3.72	2.97	2.31	1.69	1.31	0.9	0.73	0.6	0.45	0.39
313.15 K	2.85	2.28	1.82	1.38	1.11	0.82	0.68	0.56	0.44	0.38
323.15 K	2.21	1.82	1.48	1.15	0.93	0.7	0.58	0.5	0.39	0.34

CCC(C)=O + CCCCCCC
298 K, 101.33 kPa
Conditions	viscosity [mPa·s]
x2 = 0.1271	0.3686
x2 = 0.2092	0.3655
x2 = 0.3055	0.3637
x2 = 0.4593	0.3646
x2 = 0.5955	0.3649
x2 = 0.7044	0.3677
x2 = 0.8014	0.3721
x2 = 0.9011	0.3789
